Measurements published in article PMC4503722, “Novel Phenotypic Outcomes Identified for a Public Collection of Approved Drugs from a Publicly Accessible Panel of Assays” (PLoS ONE, 2015).

Assays:
[1] = system: endothelial tube formation in co-cultures of ECFCs and ADSCs treated with VEGF; experiment: cells; format: cell-based, human
[2] = system: nuclear β-catenin in C2C12 cells; experiment: cells; format: cell-based; details: concentration response; for WntCondMedia_bCatenin C2C12 IC50/EC50: assay number 5
[3] = system: alkaline phosphatase (ALP) activity in C2C12 cells; format: cell-based; details: concentration response; for WntCondMedia_Alk Phos C2C12 IC50/EC50: assay number 6
HeLa cells = experiment: cells; format: cell-based; details: for Hela CellCycMod PI 2N IC50/EC50: assay number 14; for Hela CellCycMod PI S Phase IC50/EC50: assay number 15; for Hela CellCycMod PI 4N IC50/EC50: assay number 16; for Hela CellCycMod PI MI IC50/EC50: assay number 17; for Hela CellCycMod PI Cell Number IC50/EC50: assay number 18
hp70S6K1 (RPS6KB1) = target: T1, hp70S6K1 (RPS6KB1) (Homo sapiens, UniProt P23443); experiment: Cerep LANCE kinase assay hp70S6K1 (S1 assay 31); format: biochemical; details: for hp70S6K1 LANCE IC50/EC50: assay number 31
T1 construct: purchased Cerep (LANCE kinase assay platform, contract assay)
T1 sequence (P23443 whole entry): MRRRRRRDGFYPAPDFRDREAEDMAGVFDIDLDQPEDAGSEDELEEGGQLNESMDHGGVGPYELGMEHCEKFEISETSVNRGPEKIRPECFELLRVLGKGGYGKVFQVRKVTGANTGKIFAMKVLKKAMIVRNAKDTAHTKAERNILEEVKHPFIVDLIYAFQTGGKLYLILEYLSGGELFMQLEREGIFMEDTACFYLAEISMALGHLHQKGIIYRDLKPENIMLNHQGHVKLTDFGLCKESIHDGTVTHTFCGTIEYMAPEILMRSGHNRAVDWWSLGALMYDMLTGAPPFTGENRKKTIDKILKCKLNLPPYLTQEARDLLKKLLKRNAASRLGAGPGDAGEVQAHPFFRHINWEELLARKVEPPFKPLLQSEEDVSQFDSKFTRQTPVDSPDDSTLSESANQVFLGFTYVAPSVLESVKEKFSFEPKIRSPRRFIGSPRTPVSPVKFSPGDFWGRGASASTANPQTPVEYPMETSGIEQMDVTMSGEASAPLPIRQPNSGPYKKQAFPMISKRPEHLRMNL

hKDR = target: T2, hKDR (Homo sapiens, UniProt P35968); experiment: Cerep LANCE kinase assay hKDR (S1 assay 32); format: biochemical; details: for hKDR LANCE IC50/EC50: assay number 32
T2 construct: purchased Cerep (LANCE kinase assay platform, contract assay)
T2 sequence (P35968 20-1356): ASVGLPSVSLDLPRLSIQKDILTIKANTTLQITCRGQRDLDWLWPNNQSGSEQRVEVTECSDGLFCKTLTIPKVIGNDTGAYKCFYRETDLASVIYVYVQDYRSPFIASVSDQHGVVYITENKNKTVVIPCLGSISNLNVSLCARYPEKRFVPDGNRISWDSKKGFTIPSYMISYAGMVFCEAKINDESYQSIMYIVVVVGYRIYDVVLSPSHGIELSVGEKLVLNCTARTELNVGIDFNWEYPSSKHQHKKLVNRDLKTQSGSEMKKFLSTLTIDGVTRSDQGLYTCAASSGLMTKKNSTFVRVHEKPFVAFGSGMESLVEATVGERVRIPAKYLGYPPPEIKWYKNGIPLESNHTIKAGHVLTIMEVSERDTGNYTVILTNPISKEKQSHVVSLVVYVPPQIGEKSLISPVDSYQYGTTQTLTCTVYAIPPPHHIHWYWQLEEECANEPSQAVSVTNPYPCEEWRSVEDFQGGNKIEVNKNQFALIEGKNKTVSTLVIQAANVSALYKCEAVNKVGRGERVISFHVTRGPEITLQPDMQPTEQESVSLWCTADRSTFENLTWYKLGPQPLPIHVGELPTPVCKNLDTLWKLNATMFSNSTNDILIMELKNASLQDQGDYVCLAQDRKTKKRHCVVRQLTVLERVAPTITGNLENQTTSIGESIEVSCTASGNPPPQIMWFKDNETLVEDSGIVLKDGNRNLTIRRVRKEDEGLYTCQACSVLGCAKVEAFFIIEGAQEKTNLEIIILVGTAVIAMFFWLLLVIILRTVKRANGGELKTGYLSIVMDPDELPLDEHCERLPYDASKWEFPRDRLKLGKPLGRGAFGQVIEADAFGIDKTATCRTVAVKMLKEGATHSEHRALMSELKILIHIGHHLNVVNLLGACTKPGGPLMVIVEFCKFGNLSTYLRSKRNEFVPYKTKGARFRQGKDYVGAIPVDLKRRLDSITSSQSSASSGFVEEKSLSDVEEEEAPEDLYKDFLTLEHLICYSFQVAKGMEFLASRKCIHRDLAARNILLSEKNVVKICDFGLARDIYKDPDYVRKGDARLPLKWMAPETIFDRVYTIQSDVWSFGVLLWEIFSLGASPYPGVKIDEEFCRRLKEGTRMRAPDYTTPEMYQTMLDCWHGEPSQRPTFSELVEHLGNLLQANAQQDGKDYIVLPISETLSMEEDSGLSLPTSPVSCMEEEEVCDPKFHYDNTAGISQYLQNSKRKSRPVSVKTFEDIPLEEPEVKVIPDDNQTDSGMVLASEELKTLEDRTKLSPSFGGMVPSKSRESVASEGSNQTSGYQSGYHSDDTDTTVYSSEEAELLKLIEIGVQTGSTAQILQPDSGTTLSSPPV

hJAK2 = target: T3, hJAK2 (Homo sapiens, UniProt O60674); experiment: Cerep LANCE kinase assay hJAK2 (S1 assay 33); format: biochemical; details: for hJAK2 LANCE IC50/EC50: assay number 33
T3 construct: purchased Cerep (LANCE kinase assay platform, contract assay)
T3 sequence (O60674 whole entry): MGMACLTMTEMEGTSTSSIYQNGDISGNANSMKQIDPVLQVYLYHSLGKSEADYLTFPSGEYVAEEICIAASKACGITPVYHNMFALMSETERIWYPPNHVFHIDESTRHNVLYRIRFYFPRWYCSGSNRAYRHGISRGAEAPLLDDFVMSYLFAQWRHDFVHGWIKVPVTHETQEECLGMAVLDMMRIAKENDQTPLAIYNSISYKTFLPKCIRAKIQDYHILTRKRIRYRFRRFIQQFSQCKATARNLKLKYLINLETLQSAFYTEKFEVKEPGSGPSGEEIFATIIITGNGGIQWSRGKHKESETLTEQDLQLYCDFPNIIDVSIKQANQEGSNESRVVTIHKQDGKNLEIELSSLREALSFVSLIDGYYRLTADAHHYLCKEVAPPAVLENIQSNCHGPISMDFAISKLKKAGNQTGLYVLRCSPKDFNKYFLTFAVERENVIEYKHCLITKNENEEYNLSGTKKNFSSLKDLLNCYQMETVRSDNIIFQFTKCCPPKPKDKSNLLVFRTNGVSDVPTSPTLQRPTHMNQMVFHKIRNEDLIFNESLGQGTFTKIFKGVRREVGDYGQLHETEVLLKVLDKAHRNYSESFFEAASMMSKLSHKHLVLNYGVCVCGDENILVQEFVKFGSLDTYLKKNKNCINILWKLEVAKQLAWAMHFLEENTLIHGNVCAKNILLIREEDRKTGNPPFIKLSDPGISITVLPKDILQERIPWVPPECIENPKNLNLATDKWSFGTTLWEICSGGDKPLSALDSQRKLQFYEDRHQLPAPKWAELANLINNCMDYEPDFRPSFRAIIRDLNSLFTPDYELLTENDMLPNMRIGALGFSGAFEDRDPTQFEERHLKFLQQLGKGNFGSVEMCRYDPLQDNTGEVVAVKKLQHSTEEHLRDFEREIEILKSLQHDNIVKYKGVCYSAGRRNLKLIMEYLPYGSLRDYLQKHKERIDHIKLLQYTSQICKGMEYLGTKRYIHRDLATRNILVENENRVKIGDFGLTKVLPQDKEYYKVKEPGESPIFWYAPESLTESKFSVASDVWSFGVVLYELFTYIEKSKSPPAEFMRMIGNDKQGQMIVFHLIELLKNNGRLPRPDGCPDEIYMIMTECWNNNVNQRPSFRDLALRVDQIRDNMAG

hGSK3b = target: T4, hGSK3b (Homo sapiens, UniProt P49841); experiment: Cerep LANCE kinase assay hGSK3b (S1 assay 34); format: biochemical; details: for hGSK3b LANCE IC50/EC50: assay number 34
T4 construct: purchased Cerep (LANCE kinase assay platform, contract assay)
T4 sequence (P49841 whole entry): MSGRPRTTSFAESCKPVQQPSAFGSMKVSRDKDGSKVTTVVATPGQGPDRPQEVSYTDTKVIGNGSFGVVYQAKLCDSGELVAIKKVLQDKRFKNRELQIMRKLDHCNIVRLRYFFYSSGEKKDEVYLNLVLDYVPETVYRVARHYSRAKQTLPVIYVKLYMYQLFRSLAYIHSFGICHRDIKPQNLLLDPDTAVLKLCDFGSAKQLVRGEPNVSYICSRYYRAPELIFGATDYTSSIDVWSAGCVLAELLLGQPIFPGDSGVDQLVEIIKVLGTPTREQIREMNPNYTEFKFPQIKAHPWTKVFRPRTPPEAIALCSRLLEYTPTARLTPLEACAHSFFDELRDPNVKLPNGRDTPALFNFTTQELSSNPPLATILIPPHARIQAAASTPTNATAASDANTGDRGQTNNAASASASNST

hFLT3 = target: T5, hFLT3 (Homo sapiens, UniProt P36888); experiment: Cerep LANCE kinase assay hFLT3 (S1 assay 35); format: biochemical; details: for hFLT3 LANCE IC50/EC50: assay number 35
T5 construct: purchased Cerep (LANCE kinase assay platform, contract assay)
T5 sequence (P36888 27-993): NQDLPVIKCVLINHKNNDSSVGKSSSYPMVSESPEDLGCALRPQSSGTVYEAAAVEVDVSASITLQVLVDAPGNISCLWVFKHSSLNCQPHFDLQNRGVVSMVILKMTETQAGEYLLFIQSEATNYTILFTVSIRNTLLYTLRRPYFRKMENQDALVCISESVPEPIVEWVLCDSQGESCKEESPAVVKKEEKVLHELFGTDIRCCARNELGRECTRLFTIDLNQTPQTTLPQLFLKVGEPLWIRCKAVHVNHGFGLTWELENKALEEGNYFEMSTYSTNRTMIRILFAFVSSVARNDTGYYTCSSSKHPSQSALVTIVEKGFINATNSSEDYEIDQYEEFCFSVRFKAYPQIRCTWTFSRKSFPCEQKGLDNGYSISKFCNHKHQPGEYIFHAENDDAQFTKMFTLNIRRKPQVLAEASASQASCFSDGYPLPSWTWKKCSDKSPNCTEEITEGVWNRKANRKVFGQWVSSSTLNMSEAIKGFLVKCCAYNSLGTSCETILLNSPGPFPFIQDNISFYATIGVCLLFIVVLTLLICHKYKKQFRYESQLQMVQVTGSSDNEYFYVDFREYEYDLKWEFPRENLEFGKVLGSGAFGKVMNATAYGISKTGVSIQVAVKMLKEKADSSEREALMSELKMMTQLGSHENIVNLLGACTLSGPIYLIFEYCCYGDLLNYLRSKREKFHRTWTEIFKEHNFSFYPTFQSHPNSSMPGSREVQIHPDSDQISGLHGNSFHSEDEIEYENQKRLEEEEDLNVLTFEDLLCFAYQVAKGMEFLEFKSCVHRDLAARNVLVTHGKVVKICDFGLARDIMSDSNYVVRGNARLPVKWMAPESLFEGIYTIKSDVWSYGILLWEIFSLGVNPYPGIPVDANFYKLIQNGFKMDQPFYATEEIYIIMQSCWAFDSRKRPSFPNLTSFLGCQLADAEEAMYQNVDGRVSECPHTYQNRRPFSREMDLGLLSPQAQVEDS

[4] = system: ECFC/ADSC co-culture cell nuclei number
DLD-1 = experiment: cells; format: cell-based; details: assay number 23; basal
SW480 = experiment: cells; format: cell-based; details: assay number 24; basal
HCT116 = experiment: cells; format: cell-based; details: assay number 25; basal
[5] = system: HCT116 cells treated with a GSK3β inhibitor; experiment: cells; format: cell-based; details: assay number 26; GSK3b inhibitor pretreated
Colo320 = experiment: cells; format: cell-based; details: assay number 27; basal
HT-29 = experiment: cells; format: cell-based; details: assay number 28; basal
RKO = experiment: cells; format: cell-based; details: assay number 29; basal
SNU-C1 = experiment: cells; format: cell-based; details: assay number 30; basal

SMILES	VEGF_ADSC\ECFC Angio CD31 TubeArea IC50/EC50 [1] [µM]	WntCondMedia_bCatenin C2C12 IC50/EC50 [2] [µM]	WntCondMedia_Alk Phos C2C12 IC50/EC50 [3] [µM]	Hela CellCycMod PI 2N IC50/EC50 (HeLa cells; 2N) [µM]	Hela CellCycMod PI S Phase IC50/EC50 (HeLa cells) [µM]	Hela CellCycMod PI 4N IC50/EC50 (HeLa cells; 4N) [µM]	Hela CellCycMod PI MI IC50/EC50 (HeLa cells; MI) [µM]	Hela CellCycMod PI Cell Number IC50/EC50 (HeLa cells) [µM]	VEGF_ADSC\ECFC Angio Hoechst NucArea IC50/EC50 [4] [µM]	hp70S6K1 LANCE IC50/EC50 (hp70S6K1 (RPS6KB1)) [µM]	hKDR LANCE IC50/EC50 (hKDR) [µM]	hJAK2 LANCE IC50/EC50 (hJAK2) [µM]	hGSK3b LANCE IC50/EC50 (hGSK3b) [µM]	hFLT3 LANCE IC50/EC50 (hFLT3) [µM]	also measured
COC(=O)c1nc(Cl)c(Cl)nc1N [NCGC00253704-01]															IC50/EC50, VEGF_ADSC\ECFC Angio CD31 TubeArea (assay number 2) [1]: 0.8652 µM; IC50/EC50, WntCondMedia_bCatenin C2C12 (assay number 5) [2]: 0.3085 µM; IC50/EC50, WntCondMedia_Alk Phos C2C12 (assay number 6) [3]: 0.1565 µM; IC50/EC50, Hela CellCycMod PI 2N (assay number 14) (HeLa cells; 2N): 0.3341 µM; IC50/EC50, Hela CellCycMod PI 4N (assay number 16) (HeLa cells; 4N): 0.5115 µM; IC50/EC50, Hela CellCycMod PI Cell Number (assay number 18) (HeLa cells; Cell Number): 0.4075 µM; IC50/EC50, Hela CellCycMod PI MI (assay number 17) (HeLa cells; MI): 0.8681 µM; IC50/EC50, Hela CellCycMod PI S Phase (assay number 15) (HeLa cells; S Phase): > 10 µM; IC50/EC50, hp70S6K1 LANCE (assay number 31) (hp70S6K1 (RPS6KB1)): > 20 µM; IC50/EC50, hKDR LANCE (assay number 32) (hKDR): > 20 µM; IC50/EC50, hJAK2 LANCE (assay number 33) (hJAK2): > 20 µM; IC50/EC50, hGSK3b LANCE (assay number 34) (hGSK3b): > 20 µM; IC50/EC50, hFLT3 LANCE (assay number 35) (hFLT3): 2.86 µM; IC50/EC50, VEGF_ADSC\ECFC Angio Hoechst NucArea (assay number 3) [4]: 6.796 µM
COc1cccc2c1C(=O)c1c(O)c3c(c(O)c1C2=O)C[C@@](O)(C(=O)CO)C[C@@H]3O[C@H]1C[C@H](N)[C@H](O[C@@H]2CCCCO2)[C@H](C)O1 [NCGC00344543-01]	0.0063	> 20	3.9488	0.0795	1.746	0.08063	> 10	0.05143	0.9949						Basal_Viability ATP DLD-1 IC50/EC50 (DLD-1): 8.952 µM; Basal_Viability ATP SW480 IC50/EC50 (SW480): 7.822 µM; Basal_Viability ATP HCT116 IC50/EC50 (HCT116): 0.9107 µM; GSK3b inh pretreated_Viability ATP HCT116 IC50/EC50 [5]: 1.275 µM; Basal_Viability ATP Colo 320 IC50/EC50 (Colo320): 2.013 µM; Basal_Viability ATP HT-29 IC50/EC50 (HT-29): > 20 µM; Basal_Viability ATP RKO IC50/EC50 (RKO): 1.01 µM; Basal_Viability ATP SNU-C1 IC50/EC50 (SNU-C1): 9.2617 µM
CC[C@@H]([C@H](C)O)n1ncn(-c2ccc(N3CCN(c4ccc(OC[C@@H]5CO[C@@](Cn6cncn6)(c6ccc(F)cc6F)C5)cc4)CC3)cc2)c1=O [NCGC00274060-01]	6.461	5.2923	1.6342	> 10		> 10	> 10	> 10	> 10	> 20	> 20	> 20	> 20	> 20	
CCC1=C[C@@H]2CN(C1)Cc1c([nH]c3ccccc13)[C@@](C(=O)OC)(c1cc3c(cc1OC)N(C)[C@H]1[C@@](O)(C(=O)OC)[C@H](OC(C)=O)[C@]4(CC)C=CCN5CC[C@]31[C@@H]54)C2.O=C(O)C(O)C(O)C(=O)O.O=C(O)C(O)C(O)C(=O)O [NCGC00263568-01]	0.0055	0.0089	0.0101						> 10	> 20	> 20	> 20	> 20	> 20	
Cc1cc(O)c2ccccc2c1O [NCGC00253592-01]	4.8933	4.3946	1.7548	> 10	> 10	> 10	> 10	2.4571	9.854	> 20	18.36	> 20	19.11	> 20	
Cc1ccccc1C(=O)Nc1ccc(C(=O)N2CCCC(N(C)C)c3ccccc32)cc1 (centres unmarked) [NCGC00262931-01]	> 10	4.5593	9.9815	> 10		> 10	3.4063	2.9147	> 10	> 20	> 20	> 20	> 20	> 20	
